# Measurements reported in patent publication US11590139B2, “Substituted aminopurine compounds, compositions thereof, and methods of treatment therewith” (Signal Pharmaceuticals, LLC, priority 2014, dated 2023).
# Test system: Lox-IMVI melanoma cell line
# Assay: Lox-IMVI anti-proliferative assay (growth inhibition, Cell Titer-Glo)
# Type: cell-based, human
# Details: Homo sapiens; IC50 activity level in the cell-based Lox-IMVI anti-proliferative assay; read-out: Activity
# Procedure, shortened: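 Lox-IMVI cells in RPMI+10% FBS exposed 72 h at 37 °C to 10-point, 3-fold dilutions (0.5 nM–10 μM; 0.2% DMSO final), in duplicate. Viability by Cell Titer-Glo luminescence, with a t0 cell-number reading; data as % of DMSO control; IC50 from a four-parameter logistic fit.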
row,IC50 [µM],Compound
1,0.5 to 1,"N#Cc1cc(F)c(Nc2nc3cnc(NC4CCC(F)(F)CC4)nc3n2[C@H]2CC[C@@H](C(N)=O)CC2)c(F)c1 [Example 396, (1s,4s)-4-(8-(4-cyano-2,6-difluorophenylamino)-2-(4,4-difluorocyclohexylamino)-9H-purin-9-yl)cyclohexanecarboxamide]"
2,> 1,"NC(=O)[C@H]1CC[C@@H](n2c(Nc3c(F)cc(Cl)cc3F)nc3cnc(NC4COCC4O)nc32)CC1 (stereo partly shown) [Example 184, (1s,4s)-4-(8-(4-chloro-2,6-difluorophenylamino)-2-(4-hydroxytetrahydrofuran-3-ylamino)-9H-purin-9-yl)cyclohexanecarboxamide]"
3,0.5 to 1,"NC(=O)[C@H]1CC[C@@H](n2c(Nc3c(Cl)cc(F)cc3Cl)nc3cnc(NC4CCCC4)nc32)CC1 [Example 121, (1s,4s)-4-(2-(cyclopentylamino)-8-(2,6-dichloro-4-fluorophenylamino)-9H-purin-9-yl)cyclohexanecarboxamide]"
4,> 1,"NC(=O)[C@H]1CC[C@@H](n2c(Nc3c(Cl)cc(F)cc3Cl)nc3cnc(N[C@@H]4CCCOC4)nc32)CC1 [Example 189, (1S,4s)-4-(8-(2,6-dichloro-4-fluorophenylamino)-2-((R)-tetrahydro-2H-pyran-3-ylamino)-9H-purin-9-yl)cyclohexanecarboxamide]"
5,> 1,"NC(=O)[C@H]1CC[C@@H](n2c(Nc3c(F)cccc3F)nc3cnc(N[C@H]4CCC[C@@H]4O)nc32)CC1 [Example 267, (1R,4s)-4-(8-(2,6-difluorophenylamino)-2-((1S,2S)-2-hydroxycyclopentylamino)-9H-purin-9-yl)cyclohexanecarboxamide]"
6,> 1,"NC(=O)[C@H]1CC[C@@H](n2c(Nc3c(Cl)cc(F)cc3Cl)nc3cnc(N[C@H]4CCC[C@@H](O)C4)nc32)CC1 [Example 374, (1R,4s)-4-(8-(2,6-dichloro-4-fluorophenylamino)-2-((1S,3R)-3-hydroxycyclohexylamino)-9H-purin-9-yl)cyclohexanecarboxamide]"
7,> 1,"Cc1cc(Cl)c(Nc2nc3cnc(NC4CCOCC4)nc3n2[C@H]2CC[C@@H](C(N)=O)CC2)c(Cl)c1 [Example 116, (1s,4s)-4-(8-(2,6-dichloro-4-methylphenylamino)-2-(tetrahydro-2H-pyran-4-ylamino)-9H-purin-9-yl)cyclohexanecarboxamide]"
8,> 1,"Cc1cc(Cl)c(Nc2nc3cnc(NC4CCOCC4)nc3n2[C@H]2CC[C@@H](C(N)=O)CC2)cc1C [Example 101, (1s,4s)-4-(8-(2-chloro-4,5-dimethylphenylamino)-2-(tetrahydro-2H-pyran-4-ylamino)-9H-purin-9-yl)cyclohexanecarboxamide]"
9,> 1,"C[C@@H](CO)Nc1ncc2nc(Nc3cc(Cl)ccc3F)n([C@H]3CC[C@@H](C(N)=O)CC3)c2n1 [Example 171, (1R,4s)-4-(8-(5-chloro-2-fluorophenylamino)-2-((S)-1-hydroxypropan-2-ylamino)-9H-purin-9-yl)cyclohexanecarboxamide]"
10,> 1,"C[C@@H](O)CNc1ncc2nc(Nc3c(Cl)cc(Cl)cc3Cl)n([C@H]3CC[C@@H](C(N)=O)CC3)c2n1 [Example 152, (1S,4s)-4-(2-((R)-2-hydroxypropylamino)-8-(2,4,6-trichlorophenylamino)-9H-purin-9-yl)cyclohexanecarboxamide]"
11,> 1,"NC(=O)[C@H]1CC[C@@H](n2c(Nc3cccc(Cl)c3F)nc3cnc(NC4COCC4O)nc32)CC1 (stereo partly shown) [Example 192, (1s,4s)-4-(8-(3-chloro-2-fluorophenylamino)-2-(4-hydroxytetrahydrofuran-3-ylamino)-9H-purin-9-yl)cyclohexanecarboxamide]"
12,> 1,"NC(=O)[C@H]1CC[C@@H](n2c(Nc3c(F)ccc(Cl)c3F)nc3cnc(NC4CC5(COC5)C4)nc32)CC1 [Example 196, (1s,4s)-4-(2-(2-oxaspiro[3.3]heptan-6-ylamino)-8-(3-chloro-2,6-difluorophenylamino)-9H-purin-9-yl)cyclohexanecarboxamide]"
13,0.25 to 0.5,"NC(=O)[C@H]1CC[C@@H](n2c(Nc3c(F)cc(Cl)cc3Cl)nc3cnc(N[C@@H]4CCOC4)nc32)CC1 [Example 223, (1S,4s)-4-(8-(2,4-dichloro-6-fluorophenylamino)-2-((R)-tetrahydrofuran-3-ylamino)-9H-purin-9-yl)cyclohexanecarboxamide]"
14,0.5 to 1,"NC(=O)[C@H]1CC[C@@H](n2c(Nc3c(F)cc(C(F)(F)F)cc3Cl)nc3cnc(NC4CCOCC4)nc32)CC1 [Example 398, (1s,4s)-4-(8-(2-chloro-6-fluoro-4-(trifluoromethyl)phenylamino)-2-(tetrahydro-2H-pyran-4-ylamino)-9H-purin-9-yl)cyclohexanecarboxamide]"

# Same assay, conditions: Homo sapiens; Lox-IMVI anti-proliferative assay, IC50 activity level; read-out: Activity
row,Compound,IC50 [µM]
1,"N#Cc1cc(F)c(Nc2nc3cnc(N[C@@H]4CCC[C@H](O)C4)nc3n2[C@H]2CC[C@@H](C(N)=O)CC2)c(F)c1 [Example 457, (1S,4s)-4-(8-(4-cyano-2,6-difluorophenylamino)-2-((1R,3S)-3-hydroxycyclohexylamino)-9H-purin-9-yl)cyclohexanecarboxamide]",> 1
2,"C[C@]1(O)CCC[C@@H](Nc2ncc3nc(Nc4c(F)cc(F)cc4Cl)n([C@H]4CC[C@@H](C(N)=O)CC4)c3n2)C1 [Example 425, (1S,4s)-4-(8-(2-chloro-4,6-difluorophenylamino)-2-((1R,3S)-3-hydroxy-3-methylcyclohexylamino)-9H-purin-9-yl)cyclohexanecarboxamide]",> 1
3,"N#Cc1cc(F)c(Nc2nc3cnc(NC4CC(F)(F)C4)nc3n2[C@H]2CC[C@@H](C(N)=O)CC2)c(F)c1 [Example 401, (1s,4s)-4-(8-(4-cyano-2,6-difluorophenylamino)-2-(3,3-difluorocyclobutylamino)-9H-purin-9-yl)cyclohexanecarboxamide]",> 1

# Continued, values first:
row,IC50 [µM],Compound
1,> 1,"C[C@H]1COCC[C@@H]1Nc1ncc2nc(Nc3c(F)cc(Cl)cc3F)n([C@H]3CC[C@@H](C(N)=O)CC3)c2n1 [Example 507, (1R,4s)-4-(8-(4-chloro-2,6-difluorophenylamino)-2-((3R,4S)-3-methyltetrahydro-2H-pyran-4-ylamino)-9H-purin-9-yl)cyclohexanecarboxamide]"
2,< 0.25,"NC(=O)[C@H]1CC[C@@H](n2c(Nc3c(Cl)cc(Cl)cc3Cl)nc3cnc(NC4CCCOCC4)nc32)CC1 (stereo partly shown) [Example 539, (1s,4s)-4-(2-(oxepan-4-ylamino)-8-(2,4,6-trichlorophenylamino)-9H-purin-9-yl)cyclohexanecarboxamide]"
3,< 0.25,"C[C@]1(C(N)=O)CC[C@@H](n2c(Nc3c(F)cc(C#N)cc3Cl)nc3cnc(NC4CCCC4)nc32)CC1 [Example 575, (1s,4s)-4-(8-(2-chloro-4-cyano-6-fluorophenylamino)-2-(cyclopentylamino)-9H-purin-9-yl)-1-methylcyclohexanecarboxamide]"
4,> 1,"C[C@]1(C(N)=O)CC[C@H](n2c(Nc3c(F)cc(Cl)cc3Cl)nc3cnc(N[C@@H]4CCC[C@H](O)C4)nc32)CC1 [Example 484, (1R,4r)-4-(8-(2,4-dichloro-6-fluorophenylamino)-2-((1R,3S)-3-hydroxycyclohexylamino)-9H-purin-9-yl)-1-methylcyclohexanecarboxamide]"
5,< 0.25,"C[C@]1(C(N)=O)CC[C@@H](n2c(Nc3c(F)cc(Cl)cc3F)nc3cnc(NC4CCOCC4)nc32)CC1 [Example 521, (1s,4s)-4-(8-(4-chloro-2,6-difluorophenylamino)-2-(tetrahydro-2H-pyran-4-ylamino)-9H-purin-9-yl)-1-methylcyclohexanecarboxamide]"
6,0.25 to 0.5,"NC(=O)[C@H]1CC[C@@H](n2c(Nc3c(F)cc(Cl)cc3F)nc3cnc(NC4CCCOCC4)nc32)CC1 (stereo partly shown) [Example 540, (1s,4s)-4-(8-(4-chloro-2,6-difluorophenylamino)-2-(oxepan-4-ylamino)-9H-purin-9-yl)cyclohexanecarboxamide]"

# Same assay, conditions: Homo sapiens; Lox-IMVI melanoma cell line, anti-proliferative assay; read-out: Activity (IC50 activity level)
row,IC50 [µM],Compound
1,> 1,"NC(=O)[C@H]1CC[C@@H](n2c(Nc3c(F)cc(Cl)cc3F)nc3cnc(NC[C@@H]4CCCC[C@H]4O)nc32)CC1 [Example 663, (1R,4s)-4-(8-(4-chloro-2,6-difluorophenylamino)-2-(((1S,2R)-2-hydroxycyclohexyl)methylamino)-9H-purin-9-yl)cyclohexanecarboxamide]"
2,> 1,"N#Cc1cc(Cl)c(Nc2nc3cnc(N[C@@H]4CCCN(C(=O)Nc5ccccc5)C4)nc3n2[C@H]2CC[C@@H](C(N)=O)CC2)c(Cl)c1 [Example 780, (R)-3-(9-((1s,4S)-4-carbamoylcyclohexyl)-8-(2,6-dichloro-4-cyanophenylamino)-9H-purin-2-ylamino)-N-phenylpiperidine-1-carboxamide]"
3,< 0.25,"C[C@]1(C(N)=O)CC[C@@H](n2c(Nc3c(Cl)cc(Cl)cc3Cl)nc3cnc(N[C@H]4CCC[C@@H](O)C4)nc32)CC1 [Example 627, (1R,4s)-4-(2-((1S,3R)-3-hydroxycyclohexylamino)-8-(2,4,6-trichlorophenylamino)-9H-purin-9-yl)-1-methylcyclohexanecarboxamide]"
4,0.25 to 0.5,"C[C@]1(C(N)=O)CC[C@@H](n2c(Nc3c(F)cc(F)cc3Cl)nc3cnc(N[C@@H]4CC[C@@H](O)C4)nc32)CC1 [Example 635, (1S,4s)-4-(8-(2-chloro-4,6-difluorophenylamino)-2-((1R,3R)-3-hydroxycyclopentylamino)-9H-purin-9-yl)-1-methylcyclohexanecarboxamide]"
5,> 1,"N#Cc1cc(F)c(Nc2nc3cnc(NC4CCC(c5ncno5)CC4)nc3n2[C@H]2CC[C@@H](C(N)=O)CC2)c(Cl)c1 (stereo partly shown) [Example 680, (1s,4s)-4-(2-(4-(1,2,4-oxadiazol-5-yl)cyclohexylamino)-8-(2-chloro-4-cyano-6-fluorophenylamino)-9H-purin-9-yl)cyclohexanecarboxamide]"
